From patent US20240425523A1, “Compounds for the Degradation of EGFR Kinase” (Beigene Switzerland GMBH, priority 2023, published 2024)

Assays:
[1] = target: T1, EGFR L858R (BaF3-L858R cells) (Homo sapiens, UniProt P00533, L858R); assay: Cell degradation of EGFR, HTRF assay, BaF3-L858R cells; assay type: cell-based; details: 16 h treatment; for DC50: EGFR degradation; for Dmax: maximum percentage of degradation
T1 construct: host or cells: BaF3
Procedure: BaF3-L858R (abbv. L858R) cell were purchased from Kangyuan Bochuang Biotechnology (Beijing) Co., Ltd.
(§1) H1975-#8 and BaF3-L858R cells are treated with compounds diluted in 0.1% DMSO cell culture medium on day 2, incubate for 16 h, 37° C., 5% CO2. the final concentration of compounds in all assay is start with 10 uM, 5-fold dilution, total 8 doses were included.
(§2) After 16 h treatment, for H1975-#8 cells, add 100 ul HTRF 1× lysis buffer to each well; for BaF3-L858R cells, add 20 μl 4× lysis buffer to each well; seal the plate and incubate 1 hour at room temperature on a plate shaker; Once the cells are lysed, 16 μL of cell lysate are transferred to a PE 384-well HTRF detection plate; 4 μL of pre-mixed HTRF antibodies are added to each well; Cover the plate with a plate sealer, spin 1000 rpm for 1 min, Incubate overnight at room temperature; Read on BMG PheraStar with HTRF protocol (337 nm-665 nm-620 nm).
(§3) High control=Cell group with added DMSO and without compound, indicating microplate readings without EGFR degradation;
(§4) Dmax is the maximum percentage of inhibition (degradation).
(§5) The IC50 (DC50) value of a compound can be obtained by fitting the following equation
(§6) Y=Bottom+(TOP−Bottom)/(1+((IC50/X)^hillslope))
(§7) Wherein, X and Y are known values, and IC50, Hillslope, Top and Bottom are the parameters obtained by fitting with software. […] The experimental data were fitted by calculating and analyzing with Dotmatics data analysis software.

[2] = target: T2, EGFR-L858R/C797S (H1975-clone #8 cells) (Homo sapiens, UniProt P00533, C797S/L858R); assay: Cell degradation of EGFR, HTRF assay, H1975-clone#8 (L858R/C797S) cells; assay type: cell-based; details: 16 h treatment; for DC50: EGFR degradation; for Dmax: maximum percentage of degradation
T2 construct: expressed in transfected cells; host or cells: H1975 (endogenous EGFR knocked out, clone #8)
T2 sequence (P00533 25-1210 C797S/L858R): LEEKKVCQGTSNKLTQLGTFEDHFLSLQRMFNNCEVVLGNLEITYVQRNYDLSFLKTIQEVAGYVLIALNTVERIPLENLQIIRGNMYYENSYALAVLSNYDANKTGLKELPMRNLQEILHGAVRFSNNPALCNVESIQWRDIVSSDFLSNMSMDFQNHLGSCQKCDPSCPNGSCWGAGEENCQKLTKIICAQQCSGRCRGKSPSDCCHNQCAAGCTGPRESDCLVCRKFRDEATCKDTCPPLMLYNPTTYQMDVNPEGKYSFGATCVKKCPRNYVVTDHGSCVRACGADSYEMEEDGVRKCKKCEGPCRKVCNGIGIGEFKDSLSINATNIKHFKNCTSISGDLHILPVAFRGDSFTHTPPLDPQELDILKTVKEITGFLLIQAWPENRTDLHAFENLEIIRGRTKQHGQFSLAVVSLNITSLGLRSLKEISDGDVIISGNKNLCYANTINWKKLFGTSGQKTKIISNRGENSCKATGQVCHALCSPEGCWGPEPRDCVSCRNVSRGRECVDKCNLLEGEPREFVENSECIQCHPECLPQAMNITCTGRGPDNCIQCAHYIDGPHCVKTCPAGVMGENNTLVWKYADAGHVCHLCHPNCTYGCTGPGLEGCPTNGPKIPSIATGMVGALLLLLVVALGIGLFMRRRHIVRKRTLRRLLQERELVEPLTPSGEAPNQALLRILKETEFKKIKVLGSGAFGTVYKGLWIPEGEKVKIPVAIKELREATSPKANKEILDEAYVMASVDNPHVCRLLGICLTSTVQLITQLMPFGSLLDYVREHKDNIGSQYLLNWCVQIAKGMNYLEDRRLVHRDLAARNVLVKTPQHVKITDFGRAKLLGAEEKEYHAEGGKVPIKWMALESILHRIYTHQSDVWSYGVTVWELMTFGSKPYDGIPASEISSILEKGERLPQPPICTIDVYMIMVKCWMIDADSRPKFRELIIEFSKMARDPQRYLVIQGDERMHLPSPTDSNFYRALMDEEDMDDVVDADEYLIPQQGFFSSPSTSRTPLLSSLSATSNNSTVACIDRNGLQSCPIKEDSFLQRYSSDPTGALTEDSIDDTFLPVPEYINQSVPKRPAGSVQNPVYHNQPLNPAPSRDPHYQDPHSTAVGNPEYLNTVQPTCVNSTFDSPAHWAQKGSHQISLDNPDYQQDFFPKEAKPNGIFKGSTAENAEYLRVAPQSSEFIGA
Procedure: The EGFR over-expressed cells then underwent knockout, in which the EGFR targeting sgRNA was designed to only target the endogenous EGFR copies and preserve the exogenous EGFR copies. Followed by the knockout, the edited H1975 cells were seeded in 96 well plates at the concentration of […], cultured for about 2 weeks to allow single clones formation. The formed clones were screened by DNA sequencing and whole exon sequencing analysis for the desired edition.
as §1, §2, §3, §4, §5, §6, §7

T1 sequence (P00533 25-1210 L858R): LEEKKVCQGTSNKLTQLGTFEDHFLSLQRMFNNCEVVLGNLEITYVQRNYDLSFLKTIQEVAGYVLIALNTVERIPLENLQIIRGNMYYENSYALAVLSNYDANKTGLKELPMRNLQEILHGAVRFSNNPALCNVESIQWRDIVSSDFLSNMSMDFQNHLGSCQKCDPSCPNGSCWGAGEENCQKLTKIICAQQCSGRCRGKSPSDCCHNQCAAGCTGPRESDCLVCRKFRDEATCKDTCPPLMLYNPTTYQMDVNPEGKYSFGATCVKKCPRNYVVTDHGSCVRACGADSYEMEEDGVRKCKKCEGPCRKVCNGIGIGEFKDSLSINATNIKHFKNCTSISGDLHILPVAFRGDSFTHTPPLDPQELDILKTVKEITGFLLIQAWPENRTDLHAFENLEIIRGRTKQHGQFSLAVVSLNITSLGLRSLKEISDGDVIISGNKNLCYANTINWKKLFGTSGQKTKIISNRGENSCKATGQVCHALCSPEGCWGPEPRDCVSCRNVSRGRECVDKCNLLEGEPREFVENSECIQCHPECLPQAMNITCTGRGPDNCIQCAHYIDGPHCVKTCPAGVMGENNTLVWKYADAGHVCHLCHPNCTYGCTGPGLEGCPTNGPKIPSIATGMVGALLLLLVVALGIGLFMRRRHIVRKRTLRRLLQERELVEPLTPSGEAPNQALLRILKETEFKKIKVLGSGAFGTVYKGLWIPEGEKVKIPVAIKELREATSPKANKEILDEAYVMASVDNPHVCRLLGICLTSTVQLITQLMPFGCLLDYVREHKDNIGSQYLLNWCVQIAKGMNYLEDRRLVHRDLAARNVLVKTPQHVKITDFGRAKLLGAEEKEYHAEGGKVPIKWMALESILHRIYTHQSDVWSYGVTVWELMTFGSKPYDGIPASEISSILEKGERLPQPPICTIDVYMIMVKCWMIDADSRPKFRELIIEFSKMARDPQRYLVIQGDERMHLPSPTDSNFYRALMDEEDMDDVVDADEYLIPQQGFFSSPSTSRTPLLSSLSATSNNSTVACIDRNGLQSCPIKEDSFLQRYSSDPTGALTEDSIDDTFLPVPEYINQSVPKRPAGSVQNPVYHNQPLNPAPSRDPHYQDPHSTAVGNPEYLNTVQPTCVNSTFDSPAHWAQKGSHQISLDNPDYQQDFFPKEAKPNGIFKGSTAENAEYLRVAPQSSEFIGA

| Structure (SMILES) | DC50 [1] [nM] | Dmax [1] [%] | DC50 [2] [nM] | Dmax [2] [%] |
| --- | --- | --- | --- | --- |
| Cc1cc2cc(n1)-c1cnn(C)c1OC[C@H]1CC[C@H](C1)CN1/C(=N/C2=O)Nc2ccc(N3CCN(C4CCN(c5ccc(C6CCC(=O)NC6=O)nc5C)CC4)CC3)cc21 (stereo partly drawn) [Example 2, 3-(5-(4-(4-((7^1R,7^3S,E)-1^1,2^6-dimethyl-3-oxo-5^2,5^3-dihydro-1^1H,5^1H-9-oxa-4-aza-5(2,1)-benzo[d]imidazola-2(2,4)-pyridina-1(4,5)-pyrazola-7(1,3)-cyclopentanacyclononaphane-5^6-yl)piperazin-1-yl)piperidin-1-yl)-6-methylpyridin-2-yl)piperidine-2,6-dione] | 0.879 | 87.2 | 1.38 | 72.6 |
| Cc1cc2cc(n1)-c1cnn(C)c1OC[C@H]1CC[C@H](C1)CN1/C(=N/C2=O)Nc2ccc(N3CCN([C@@H]4CCN(c5cccc6c5C(C)(C)C(=O)N6C5CCC(=O)NC5=O)C[C@@H]4F)CC3)cc21 (stereo partly drawn) [Example 11, 3-(4-((3S,4R)-4-(4-((7^1R,7^3S,E)-1^1,2^6-dimethyl-3-oxo-5^2,5^3-dihydro-1^1H,5^1H-9-oxa-4-aza-5(2,1)-benzo[d]imidazola-2(2,4)-pyridina-1(4,5)-pyrazola-7(1,3)-cyclopentanacyclononaphane-5^6-yl)piperazin-1-yl)-3-fluoropiperidin-1-yl)-3,3-dimethyl-2-oxoindolin-1-yl)piperidine-2,6-dione] | 0.834 | 84.6 | 3.75 | 61.5 |
| CCc1nc(C2CCC(=O)NC2=O)ccc1N1CCC(N2CCN(c3ccc4c(c3)N3C[C@@H]5CC[C@H](COc6c(cnn6C)-c6cc(cc(C)n6)C(=O)/N=C/3N4)C5)CC2)CC1 (stereo partly drawn) [Example 4, 3-(5-(4-(4-((7^1R,7^3S,E)-1^1,2^6-dimethyl-3-oxo-5^2,5^3-dihydro-1^1H,5^1H-9-oxa-4-aza-5(2,1)-benzo[d]imidazola-2(2,4)-pyridina-1(4,5)-pyrazola-7(1,3)-cyclopentanacyclononaphane-5^6-yl)piperazin-1-yl)piperidin-1-yl)-6-ethylpyridin-2-yl)piperidine-2,6-dione] | 1.23 | 87.6 | 2.34 | 75.4 |
| Cc1cc2cc(n1)-c1cnn(C)c1OC[C@H]1CC[C@H](C1)CN1/C(=N/C2=O)Nc2ccc(N3CCN(C4CCN(c5cc(F)c(C6CCC(=O)NC6=O)nc5C)CC4)CC3)cc21 (stereo partly drawn) [Example 6, 3-(5-(4-(4-((7^1R,7^3S,E)-1^1,2^6-dimethyl-3-oxo-5^2,5^3-dihydro-1^1H,5^1H-9-oxa-4-aza-5(2,1)-benzo[d]imidazola-2(2,4)-pyridina-1(4,5)-pyrazola-7(1,3)-cyclopentanacyclononaphane-5^6-yl)piperazin-1-yl)piperidin-1-yl)-3-fluoro-6-methylpyridin-2-yl)piperidine-2,6-dione] | 3.1 | 101 | 1.2 | 86.6 |
| Cc1cc2cc(n1)-c1cnn(C)c1OC[C@H]1CC[C@H](C1)CN1/C(=N/C2=O)Nc2ccc(N3CCN(C4CCN(c5cccc6c5C(C)(C)C(=O)N6C5CCC(=O)NC5=O)CC4)CC3)cc21 (stereo partly drawn) [Example 5, 3-(4-(4-(4-((7^1R,7^3S,E)-1^1,2^6-dimethyl-3-oxo-5^2,5^3-dihydro-1^1H,5^1H-9-oxa-4-aza-5(2,1)-benzo[d]imidazola-2(2,4)-pyridina-1(4,5)-pyrazola-7(1,3)-cyclopentanacyclononaphane-5^6-yl)piperazin-1-yl)piperidin-1-yl)-3,3-dimethyl-2-oxoindolin-1-yl)piperidine-2,6-dione] | 1.01 | 84.4 | 0.856 | 75.7 |
| Cc1cc2cc(n1)-c1cnn(C)c1OC[C@@H]1CC[C@@H](C1)CN1/C(=N/C2=O)Nc2ccc(N3CCN(C4CCN(c5ccc(C6CCC(=O)NC6=O)nc5C)CC4)CC3)cc21 (stereo partly drawn) [Example 3, 3-(5-(4-(4-((7^1S,7^3R,E)-1^1,2^6-dimethyl-3-oxo-5^2,5^3-dihydro-1^1H,5^1H-9-oxa-4-aza-5(2,1)-benzo[d]imidazola-2(2,4)-pyridina-1(4,5)-pyrazola-7(1,3)-cyclopentanacyclononaphane-5^6-yl)piperazin-1-yl)piperidin-1-yl)-6-methylpyridin-2-yl)piperidine-2,6-dione] | 20.1 | 72.7 | 16.4 | 44 |
| Cc1cc2cc(n1)-c1cnn(C)c1OC[C@H]1CC[C@H](C1)CN1/C(=N/C2=O)Nc2ccc(N3CCN(C4CCN(c5cc(F)c([C@H]6CCC(=O)NC6=O)c(F)c5)CC4)CC3)cc21 [Example 1, (R)-3-(4-(4-(4-((7^1R,7^3S,E)-1^1,2^6-dimethyl-3-oxo-5^2,5^3-dihydro-1^1H,5^1H-9-oxa-4-aza-5(2,1)-benzo[d]imidazola-2(2,4)-pyridina-1(4,5)-pyrazola-7(1,3)-cyclopentanacyclononaphane-5^6-yl)piperazin-1-yl)piperidin-1-yl)-2,6-difluorophenyl)piperidine-2,6-dione] | 3.25 | 89.7 | 1.41 | 79.2 |

The remaining lines, values ahead:

| DC50 [1] [nM] | Dmax [1] [%] | DC50 [2] [nM] | Dmax [2] [%] | Structure (SMILES) |
| --- | --- | --- | --- | --- |
| 1.75 | 91.1 | 3.19 | 90.2 | Cc1cc2cc(n1)-c1cnn(C)c1OC[C@H]1CC[C@H](C1)CN1/C(=N/C2=O)Nc2ccc(N3CCN([C@H]4CCN(c5cc(F)c(C6CCC(=O)NC6=O)nc5C)C[C@H]4F)CC3)cc21 (stereo partly drawn) [Example 27, 3-(5-((3R,4S)-4-(4-((7^1R,7^3S,E)-1^1,2^6-dimethyl-3-oxo-5^2,5^3-dihydro-1^1H,5^1H-9-oxa-4-aza-5(2,1)-benzo[d]imidazola-2(2,4)-pyridina-1(4,5)-pyrazola-7(1,3)-cyclopentanacyclononaphane-5^6-yl)piperazin-1-yl)-3-fluoropiperidin-1-yl)-3-fluoro-6-methylpyridin-2-yl)piperidine-2,6-dione] |
| 16.2 | 71.9 | 1.45 | 69.3 | Cc1cc2cc(n1)-c1cnn(CCO)c1OC[C@H]1CCC(C1)CN1/C(=N/C2=O)Nc2ccc(N3CCC(N4CCC(Nc5cc(F)c([C@H]6CCC(=O)NC6=O)c(F)c5)CC4)CC3)cc21 [Example 129, (R)-3-(2,6-difluoro-4-((1′-((7^1R,7^3S,E)-1^1-(2-hydroxyethyl)-2^6-methyl-3-oxo-5^2,5^3-dihydro-1^1H,5^1H-9-oxa-4-aza-5(2,1)-benzo[d]imidazola-2(2,4)-pyridina-1(4,5)-pyrazola-7(1,3)-cyclopentanacyclononaphane-5^6-yl)-[1,4′-bipiperidin]-4-yl)amino)phenyl)piperidine-2,6-dione] |
| 9.56 | 77.5 | 3.75 | 81.3 | COC[C@H]1CN(c2ccc3c(c2)N2C[C@@H]4CC[C@H](COc5c(c(C)nn5C)-c5cc(cc(C)n5)C(=O)/N=C/2N3)C4)CCN1C1CCN(c2c(C)cc(NC3CCC(=O)NC3=O)nc2C)CC1 (stereo partly drawn) [Example 159, 3-((5-(4-((R)-2-(methoxymethyl)-4-((7^1R,7^3S,E)-1^1,1^3,2^6-trimethyl-3-oxo-5^2,5^3-dihydro-1^1H,5^1H-9-oxa-4-aza-5(2,1)-benzo[d]imidazola-2(2,4)-pyridina-1(4,5)-pyrazola-7(1,3)-cyclopentanacyclononaphane-5^6-yl)piperazin-1-yl)piperidin-1-yl)-4,6-dimethylpyridin-2-yl)amino)piperidine-2,6-dione] |
| 1.04 | 87.6 | 2.02 | 63.2 | COC[C@@H]1CN(c2ccc3c(c2)N2C[C@@H]4CC[C@H](COc5c(c(C)nn5C)-c5cc(cc(C)n5)C(=O)/N=C/2N3)C4)CCN1C1CCN(c2c(C)cc(C3CCC(=O)NC3=O)nc2C)CC1 (stereo partly drawn) [Example 147, 3-(5-(4-((S)-2-(methoxymethyl)-4-((7^1R,7^3S,E)-1^1,1^3,2^6-trimethyl-3-oxo-5^2,5^3-dihydro-1^1H,5^1H-9-oxa-4-aza-5(2,1)-benzo[d]imidazola-2(2,4)-pyridina-1(4,5)-pyrazola-7(1,3)-cyclopentanacyclononaphane-5^6-yl)piperazin-1-yl)piperidin-1-yl)-4,6-dimethylpyridin-2-yl)piperidine-2,6-dione] |
| 0.493 | 90 | 0.774 | 88.4 | Cc1cc2cc(n1)-c1cnn(C)c1OC[C@H]1CC[C@H](C1)CN1/C(=N/C2=O)Nc2ccc(N3CCN([C@@H]4CCN(c5ccc(C6CCC(=O)NC6=O)nc5C)C[C@@H]4F)CC3)cc21 (stereo partly drawn) [Example 12, 3-(5-((3S,4R)-4-(4-((7^1R,7^3S,E)-1^1,2^6-dimethyl-3-oxo-5^2,5^3-dihydro-1^1H,5^1H-9-oxa-4-aza-5(2,1)-benzo[d]imidazola-2(2,4)-pyridina-1(4,5)-pyrazola-7(1,3)-cyclopentanacyclononaphane-5^6-yl)piperazin-1-yl)-3-fluoropiperidin-1-yl)-6-methylpyridin-2-yl)piperidine-2,6-dione] |
